The source of these data is patent publication US11725015B2, “Macrocyclic compound and uses thereof” (President and Fellows of Harvard College, priority 2017, dated 2023).

As a reminder, the IC50 is the concentration that gives 50% inhibition. A high value points to weaker potency in that assay.

The subject of assay [1] is CD31-positive vessel in the FaDu subcutaneous model. Kind of assay: Effect on CD31-positive vessel in the FaDu subcutaneous model in mice (Test Example 9). The assay is classed as in vivo. Particulars: five days after administration. How it is done: A human squamous cell carcinoma of the head and neck (SCCHN) cell line FaDu, which had been cultured in an RPMI-1640 medium containing 10% FBS, and penicillin and streptomycin, was adjusted to a concentration of 5×10^7 cells/mL with PBS to prepare a cell suspension. The cell suspension was inoculated in a volume of 100 μL into a subcutaneous part of a right flank of nude mice, 7 weeks of ages (CAnN.Cg-Foxnlnu/CrlCrlj, female, Charles River Laboratories Japan, Inc.). Ten days after cell inoculation, a test compound in saline with 100 μM of hydroxypropyl-β-cyclodextrin was intravenously administered at doses from ½ MTD to MTD. The experiment was conducted on groups each consisting of 3 mice. Five days after administration, tumor samples were collected and fixed with IHC Zinc Fixative (BD Pharmingen) at 4° C. for 24 hr. Paraffin-embedded tissues were sectioned (3 μm), mounted on positively charged slides, and air-dried. Immunohistochemical staining of CD31 was conducted using Ventana autostainer model Discover XT (Roche Diagnostics) according to the manufacture's protocol. Sections were deparaffinized, conditioned and the antigens were retrieved with CC1 (Ventana Medical Systems). Slides were blocked with Blocker A and Blocker B (Endogenous biotin blocking kit, Roche Diagnostics). Rat anti-mouse IgG CD31 antibody (Dianova GmbH) was applied at 2 μg/mL. […]
Immunostained slides were scanned using Vectra 2 Automated Slide Imaging System (Perkin Elmer Inc.). The number of blood vessels in the whole tumor was quantified by counting the CD31-positive objects using inForm 2 software (PerkinElmer Inc.) Area of the tumor region was measured by assessing the hematoxylin-staining area using inform 2 software (PerkinElmer Inc.) The number of blood vessels was normalized by the area of the tumor region. An increase rate of the blood vessel number of the test compound-dosing group was calculated with the below formula, and shown in Table 9. […]

Assay [2] has as its system human gastric cancer cell line NCI-N87. Kind of assay: NCI-N87 growth inhibition assay. The settings on record: 3 days incubation, CellTiter-Glo. The assay is classed as cell-based. The protocol:
(§1) In this assay, the growth inhibitory activities of test compounds in human gastric cancer cell lines NCI-N87 and MKN-28 were measured, respectively. NCI-N87 and MKN-28 cells were maintained in RPMI-1640 medium containing 10% FBS, penicillin and streptomycin in a 5% CO2 incubator (37° C.). To each well of a 96-well plate (Becton, Dickinson and Company, 353219), 100 μL of NCI-N87 or MKN-28 cell suspension adjusted to a concentration of 3×10^4 cells/mL with the culture medium was added, and the cells were incubated overnight in a 5% CO2 incubator (37° C.). On the next day, 100 μL of Compound (1) or Halichondrin B in three-fold dilution series suspended in the culture medium was added to each well, and the resultant was incubated for 3 days in a 5% CO2 incubator (37° C.). Then, cell viability was determined by CellTiter-Glo® Luminescent Cell Viability Assay (Promega) with EnVision 2103 Multilabel Reader (Perkin-Elmer, Wellesley, Mass.). Value of the wells containing cells without adding the test compounds was defined as 100% and the value of the wells containing no cells was defined as 0%. The concentrations of the test compound necessary for inhibiting the cell growth by 50% (i.e., an IC50 value) were calculated and are shown in Table 14.

The test system of assay [3] is human gastric cancer cell line MKN-28. Put plainly: MKN-28 growth inhibition assay. The assay is classed as cell-based. Particulars: 3 days incubation, CellTiter-Glo. How it is done:
as §1

The test system of assay [4] is human urothelial cancer cell line SW780. Put plainly: SW780 growth inhibition assay. Type of assay: cell-based. The settings on record: 3 days incubation, CellTiter-Glo. How it is done: (§2) In this assay, the growth inhibitory activities of test compounds in the human urothelial cancer cell line SW780 were measured. SW780 cells were maintained in RPMI-1640 medium containing 10% FBS, penicillin, and streptomycin in a 5% CO2 incubator (37° C.). To each well of a 96-well plate (Becton, Dickinson and Company, 353219), 100 μL of a SW780 cell suspension adjusted to a concentration of 3×10^4 cells/mL with the culture medium was added, and the cells were incubated overnight in a 5% CO2 incubator (37° C.). On the next day, 100 μL of Compound (1) or Halichondrin B in three-fold dilution series suspended in the culture medium was added to each well, and the resultant was incubated for 3 days in a 5% CO2 incubator (37° C.). Then, cell viability was determined by CellTiter-Glo® Luminescent Cell Viability Assay (Promega) with EnVision 2103 Multilabel Reader (Perkin-Elmer, Wellesley, Mass.). Value of the wells containing cells without adding the test compounds was defined as 100% and the value of the wells containing no cells was defined as 0%. The concentrations of the test compounds necessary for inhibiting the cell growth by 50% (i.e., an IC50 value) were calculated, and are shown in Table 16.
A general note: ATP-based viability assays read luminescence as a measure of living cells.

Assay [5] concerns human synovial sarcoma cell line HS-SY-II. Kind of assay: HS-SY-II growth inhibition assay. Type of assay: cell-based. The settings on record: 3 days incubation, CellTiter-Glo. How it is done: as §2, with “human synovial sarcoma” for “human urothelial cancer”, “line HS-SY-II” for “line SW780”, “measured. […]” for “measured. SW780”, “in a DMEM” for “in RPMI-1640”, “a HS-SY-II” for “a SW780”, “Table 17.” for “Table 16.”

For the compound `C=C1C[C@@H]2CC[C@@]34C[C@H]5O[C@H]6[C@@H](O3)[C@H]3O[C@H](CC[C@@H]3O[C@H]6C5O4)CC(=O)O[C@@H]3[C@@H](C)[C@@H]4O[C@@H]5C[C@]6(C[C@@H]7O[C@]8(C[C@H](C)[C@@H]9O[C@H](CN)[C@H](O)C[C@@H]9O8)C[C@H](C)[C@@H]7O6)O[C@@H]5C[C@@H]4O[C@H]3C[C@H]3O[C@@H](CC[C@@H]1O2)C[C@@H](C)C3=C` [Compound (1)], in assay [1] (0.10 mg/kg intravenously), the “Increase rate of blood vessel number (%)” value is reported as 69%. For the same compound, the IC50 is 0.002 nM in assay [2], 0.015 nM in assay [3], 0.017 nM in assay [4] and 0.002 nM in assay [5].
`C=C1C[C@@H]2CC[C@@]34C[C@H]5O[C@H]6[C@@H](O3)[C@H]3O[C@H](CC[C@@H]3O[C@H]6[C@H]5O4)CC(=O)O[C@@H]3[C@@H](C)[C@@H]4O[C@@H]5C[C@]6(C[C@@H]7O[C@]8(C[C@H](C)[C@@H]9O[C@H]([C@@H](O)C[C@@H](O)CO)C[C@@H]9O8)C[C@H](C)[C@@H]7O6)O[C@@H]5C[C@@H]4O[C@H]3C[C@H]3O[C@@H](CC[C@@H]1O2)C[C@@H](C)C3=C` [Halichondrin B, reference compound]: the “Increase rate of blood vessel number (%)” value in assay [1] (0.025 mg/kg intravenously) stood at 31%; in assay [1] (0.05 mg/kg intravenously), 39%. For the same compound, the IC50 in assay [2] is 0.007 nM; in assay [3] it was 0.017 nM; in assay [4], 0.032 nM; in assay [5], 0.01 nM.
